The data set is described as follows: solvent given as SMILES.

With `CCCCCCCC[n+]1ccc(-c2cc[n+](CCCCCCCC)cc2)cc1`, under “in CC#N”, the absorption maximum came out at 264 nm.

`O=C([O-])c1c2ccccc2c(C(=O)[O-])c2ccccc12` showed an absorption maximum (in CN(C)C=O) of 400 nm.

On to `C1=C2C3=C(C4=[N+]2[B-]2(Oc5ccccc54)Oc4ccccc4-c4c5c(c1n42)C1CCC5CC1)C1CCC3CC1` (stereo unspecified), for which the absorption maximum (in ClCCl) worked out at 626 nm.

Where the note is “in ClCCl”, `COc1cccc2cc(C)c3c4ccccc4[nH]c3c12` returned an absorption maximum of 360 nm.

The compound `N#C/C(=C\c1ccc(/C=C/c2ccc(N(c3ccccc3)c3ccccc3)cc2)s1)C(=O)O` displayed an absorption maximum (in ClCCl) of 490 nm.

For the setting “in ClCCl”, `COc1ccc(C2=C(c3ccc(OC)cc3)c3cccc4c3c(cc3nc5ccccc5nc34)O2)cc1` displayed an absorption maximum of 500 nm.

For the compound `c1cc2c3c(c1)-c1cccc4ccn(c14)B3n1ccc3cccc-2c31`, for the setting “in C1CCOC1”, the absorption maximum was 385 nm.

`COc1c(-c2ccc(N(C)C)cc2)oc2ccccc2c1=O`: the absorption maximum by setting is: (in C1CCCCC1) 361 nm; (in CC#N) 375 nm; (in CCOC(C)=O) 372 nm.

Take `F[B-]1(F)n2c(cc3c4ccccc4c4ccccc4c32)-c2ccc3ccccc3[n+]21`: the absorption maximum (in ClCCl) worked out at 476 nm.

Take `O=c1[nH]c(=O)n([C@@H]2O[C@H](CO)[C@@H](O)[C@H]2O)cc1-c1cc2ccccc2s1`: the absorption maximum amounted to 322 nm (in C1COCCO1), 321 nm (in CC#N), 321 nm (in CO) and 318 nm (in O).

Where the note is “in C1CCOC1”, `CSC1=C(C)C2=C(c3ccc(C)cc3)c3c(C)c(Cl)c(C)n3[B-](F)(F)[N+]2=C1C` showed an absorption maximum of 518 nm.

Turning to `O=Cc1ccc2nc(C#Cc3ccc(N(c4ccccc4)c4ccccc4)cc3)sc2c1`, the absorption maximum (in Cc1ccccc1) was found to be 411 nm.

For the setting “in ClCCl”, `Fc1ccc(C2=C(c3ccc(F)cc3)c3cccc4c3c(cc3nc5ccccc5nc34)O2)cc1` showed an absorption maximum of 490 nm.

For the compound `O=C1c2cc3ccccc3cc2C2=Nc3cccc[n+]3[B-](F)(F)N12`, the absorption maximum (in ClCCl) stood at 396 nm.

The compound `C=Cc1ccc(OC)cc1` returned an absorption maximum (in C1CCCCC1) of 302 nm.

`Cc1cc(=O)oc2cc3cc(O)ccc3cc12` had an absorption maximum (in CC#N) of 343 nm and an absorption maximum (in CCO) of 357 nm.

Regarding `CCC(CC)COC1=CC2=C3c4cc(OCC(CC)CC)c(-c5cccs5)n4[B-](F)(F)[n+]4nnn(c43)[B-](F)(F)[N+]2=C1c1cccs1`, the absorption maximum is recorded as 784 nm (in C1CCOC1) and 795 nm (in ClCCl).

Turning to `CCOC(=O)c1c2c3c(ccc(C)c3c3cc4c(cc13)[Si](C)(C)O[Si]4(C)C)N(C)C2=O`, where the note is “in CC#N”, the absorption maximum amounted to 380 nm.

For the compound `O=c1c2ccccc2nc2ccc(-c3ccc(N(c4ccccc4)c4ccccc4)cc3)cn12`, where the note is “in ClCCl”, the absorption maximum is listed as 355 nm.

Turning to `Cc1nc2cccc(-c3nc4ccccc4s3)c2c(=O)[nH]1`, the absorption maximum (in CN(C)C=O) is 319 nm.

In the case of `N#Cc1ccc(C[C@H](N)C(=O)O)cc1`, the absorption maximum is recorded as 236.81 nm (in C1CCOC1), 233.58 nm (in CCO) and 233.33 nm (in O).

Where the note is “in CS(C)=O”, `Cc1cccn2c1cc1c3ccccc3nc(-c3ccc(Cl)o3)c12` yielded an absorption maximum of 405 nm.

For the setting “in ClCCl”, `Fc1ccc(C#Cc2cc(C#Cc3ccc(F)cc3)c(C#Cc3ccc(F)cc3)c(C#Cc3ccc(F)cc3)c2C#Cc2ccc(F)cc2)cc1` had an absorption maximum of 371 nm.

On to `CCCCCCCCCCCCN1C(=O)c2c(c3ccc4cc(-c5ccc(N(C)C)cc5)c(OC)cc4c3c3c2ccc2cc(-c4ccc(N(C)C)cc4)c(OC)cc23)C1=O`, for which the absorption maximum (in ClCCl) was found to be 477 nm.

`COc1ccc(-c2c3nc(cc4ccc([nH]4)c(-c4ccc(OC)c(OCCCC(=O)O)c4)c4nc(cc5ccc2[nH]5)C=C4)C=C3)cc1OCCCC(=O)O` showed an absorption maximum (in CS(C)=O) of 634 nm.

As for `CC1=N/C(=C\c2cccc(N(C)C)c2)C(=O)N1CCO`, the absorption maximum is 354 nm (in C1CCOC1), 352 nm (in CC#N) and 352 nm (in CCCCCC).

Consider `COCCN1C(=O)/C(=C/c2cccc(N(C)C)c2)N=C1C`, for which the absorption maximum was found to be 353 nm (in C1CCOC1), 353 nm (in CC#N) and 352 nm (in CCCCCC).

`CC(C)(C)c1ccc(-c2cc(-c3ccc(-c4cc(-c5ccc(C(C)(C)C)cc5)c(C(=O)NCc5cccs5)s4)s3)sc2C(=O)NCc2cccs2)cc1`: the absorption maximum (in ClCCl) was 394 nm.

Turning to `CC(C)(C)c1ccc(-c2c(-c3ccc(-n4c5ccccc5c5ccccc54)cc3)cc(-c3ccc(-n4c5ccccc5c5ccccc54)cc3)c(-c3ccc(C(C)(C)C)cc3)c2-c2ccc(C(C)(C)C)cc2)cc1`, the absorption maximum (in C1CCOC1) came out at 341 nm.

In the case of `Brc1ccc2cc3c4ccccc4nc(-c4ccco4)c3n2c1`, for the setting “in CS(C)=O”, the absorption maximum amounted to 411 nm.

Compound `c1ccc2c(c1)Cc1ccccc1N2c1c2ccccc2cc2ccccc12` registered an absorption maximum (in Cc1ccccc1) of 416 nm.

For the compound `COc1ccc2cc(C#Cc3ccc([N+](=O)[O-])cc3)ccc2c1`, the absorption maximum is on record as 356 nm (in C1CCOC1), 360 nm (in ClC(Cl)Cl) and 356 nm (in ClCCl).

Take `c1ccc2c(c1)-c1ccccc1C21c2cc(-c3ccc4ccc5cccc6ccc3c4c56)ccc2-c2ccc(-c3ccc4ccc5cccc6ccc3c4c56)cc21`: the absorption maximum (in ClC(Cl)Cl) was 364 nm.

With `CCOc1cc2c(cc1/C=C/C(=C(C#N)C#N)c1ccccc1)c1ccccc1n2CC`, the absorption maximum (in C1CCOC1) is given as 462 nm; the absorption maximum (in CC#N) turned out to be 462 nm; the absorption maximum (in CCO) is 468 nm; the absorption maximum (in CCOC(C)=O) is 458 nm; the absorption maximum (in CN(C)C=O) is reported as 471 nm; the absorption maximum (in CS(C)=O) came to 476 nm. The absorption maximum is, setting by setting: (in Cc1ccccc1) 462 nm; (in ClC(Cl)Cl) 470 nm; (in ClCCl) 468 nm.

Regarding `CN(C)c1[se]c(-c2ccccc2)nc1-c1ccccc1`, under “in ClC(Cl)Cl”, the absorption maximum is 326 nm.

Regarding `O=c1c2cccc3cccc(c32)c2nc3cccc4cccc(c43)n12`, the absorption maximum (in ClCCl) amounted to 475 nm.

With `CCOC(=O)CCCCCn1c2ccc(N)cc2c(=O)c2cc(N)ccc21`, the absorption maximum (in O) stood at 455 nm.

In the case of `CC(=O)Nc1ccc(C2=C/C(=C\c3ccc(C#N)cc3)C(=O)N2)cc1`, the absorption maximum (in C1COCCO1) was 456 nm.

Regarding `CCCCCCc1ccc(-n2c3[n+](c4c5ccccc5c5ccccc5c42)[B-](C)(C)c2ccccc2-3)cc1`, the absorption maximum was determined as 359 nm (in C1CCOC1), 359 nm (in CC#N), 361 nm (in Cc1ccccc1) and 361 nm (in ClCCl).

`CCCCCCCC1=C(C)C(=O)n2c1cc1[nH]c(C(=O)OC)c(C)c1c2=O`: the absorption maximum runs as follows: (in C1CCCCC1) 393 nm; (in CO) 397 nm; (in CS(C)=O) 397 nm; (in ClC(Cl)Cl) 396 nm; (in c1ccccc1) 395 nm.

Regarding `COc1c2ccccc2c(OC)c2c1c1c(C)ccc(OC)c1n2C`, the absorption maximum reads like this: (in C1CCCCC1) 417 nm; (in CC#N) 416 nm; (in CO) 414 nm; (in ClCCl) 418 nm.

Regarding `CN1/C(=C/C=C(/C=C/c2sc3ccccc3[n+]2C)c2ccc(F)cc2)Sc2ccccc21`, the absorption maximum is, setting by setting: (in CCO) 648 nm; (in CO) 646 nm; (in CS(C)=O) 656 nm; (in O) 641 nm.

Regarding `COc1ccc(C2=C/C(=C\c3ccc(C#N)cc3)C(=O)N2)cc1OC`, for the setting “in C1COCCO1”, the absorption maximum was 457 nm.

Where the note is “in ClCCl”, `C(#Cc1cc(C#Cc2ccccc2)c(C#Cc2ccccc2)c(C#Cc2ccccc2)c1C#Cc1ccccc1)c1ccccc1` came in with an absorption maximum of 364 nm.

`Cc1c(C(=O)c2c(F)cc(F)cc2F)c2ccc3cccc4c5cccc6ccc1c(c65)c2c34` showed an absorption maximum (in ClCCl) of 390 nm.

Take `CC1=C2C=CC=[N+]2[B-](F)(F)n2cccc21`: the absorption maximum amounted to 500 nm (in CCCCCC), 494 nm (in CO) and 499 nm (in ClCCl).

The compound `CC(C)(C)c1ccc(C2=C(c3ccc(-n4c5ccc(C(C)(C)C)cc5c5cc(C(C)(C)C)ccc54)cc3)S(=O)(=O)c3c2sc(-c2ccc(-n4c5ccc(C(C)(C)C)cc5c5cc(C(C)(C)C)ccc54)cc2)c3-c2ccc(C(C)(C)C)cc2)cc1` registered an absorption maximum (in C1CCOC1) of 429 nm.

For the compound `COC(=O)C1=C(C(=O)OC)[Se](=O)[C@]23C1=C[C@H](c1ccccc12)c1ccccc13` (stereo partly specified), the absorption maximum (in ClCCl) was 341 nm.

`N#Cc1ccc(N2c3c(sc4ccccc34)Sc3sc4ccccc4c32)cc1` gave an absorption maximum (in ClCCl) of 309 nm.

`C[Si]1(c2ccccc2)C(c2ccc3c4ccccc4n(-c4ccccc4)c3c2)=C(c2ccccc2)C(c2ccccc2)=C1c1ccc2c3ccccc3n(-c3ccccc3)c2c1`: the absorption maximum (in C1CCOC1) stood at 398 nm.

On to `Cc1cc(C)c(C2=C3C=C(c4ccccc4)C(c4ccccc4)=[N+]3[B-](F)(F)n3c2cc(-c2ccccc2)c3-c2ccccc2)c(C)c1`, for which the absorption maximum was 590 nm (in C1CCCCC1); 587 nm (in C1CCOC1); 578 nm (in CC#N); 592 nm (in Cc1ccccc1); 585 nm (in ClCCl).

For the compound `CCCCCCCCC1(CCCCCCCC)c2cc(C#CC#Cc3ccc(N(c4ccccc4)c4ccccc4)cc3)ccc2-c2ccc(C=O)cc21`, the absorption maximum was found to be 377 nm (in C1CCOC1); 383 nm (in C1COCCO1); 375 nm (in CC#N); 389 nm (in CC(C)=O); 378 nm (in CCCCCC); 381 nm (in CCOC(C)=O). The absorption maximum (in CN(C)C=O) was 382 nm; the absorption maximum (in CS(C)=O) is listed as 382 nm; the absorption maximum (in Cc1ccccc1) turned out to be 387 nm; the absorption maximum (in ClC(Cl)Cl) is 375 nm; the absorption maximum (in ClCCl) worked out at 365 nm.

`COc1ccc2c3ccc(OC)cc3n(-c3ccc(-c4nnc(-c5c(C(C)C)cc(C(C)C)cc5C(C)C)o4)cc3)c2c1`: under “in Cc1ccccc1”, the absorption maximum is listed as 319 nm.

As to `CC(C)[Si](C#Cc1c2ccc(C(C)(C)C)cc2c(C#Cc2c3ccc(C(C)(C)C)cc3c(C#C[Si](C(C)C)(C(C)C)C(C)C)c3ccc(C(C)(C)C)cc23)c2ccc(C(C)(C)C)cc12)(C(C)C)C(C)C`, the absorption maximum (in Cc1ccccc1) amounted to 523 nm.

The values above are taken from the Deep4Chem optical property database.
